Assay results published in article PMC6191125, “Peptidoglycan potentiates the membrane disrupting effect of the carboxyamidated form of DMS-DA6, a Gram-positive selective antimicrobial peptide isolated from Pachymedusa dacnicolor skin” (PLoS ONE, 2018).
In brackets after ≈: the same amount, converted by molar mass. Residues, ends and D or L forms follow the SMILES beside them.

Legend:
E. coli ATCC 35218 = type: cell-based, Escherichia coli; conditions: LB, 10^7 cfu/mL, 18 h at 37°C, peptide 0.2-100 μM, averaged over >=3 independent experiments in triplicate
Description: (§1) Gram-negative bacterial strains, Escherichia coli ATCC 8739, Escherichia coli ATCC 35218, Escherichia coli ML 35p, Escherichia coli K12, Pseudomonas aeruginosa ATCC 27853, and Gram-positive bacterial strains, Enterococcus faecalis ATCC29212, Kocuria rhizophila ATCC 9341, Staphylococcus aureus ATCC 6538, Staphylococcus aureus ATCC 29213, Staphylococcus aureus ST 1065, Staphylococcus epidermidis BM 3302, and Bacillus subtilis subsp. subtilis CIP 52.65, as well as two multiresistant strains (Staphylococcus aureus DAR 5829 (http://www.ncbi.nlm.nih.gov/bioproject/228435) and Enterococcus faecium BM 4147 [20] were cultured as described previously. The minimal inhibitory concentration (MIC) of the peptides was determined by the microtiter broth dilution method. Overnight precultures were subcultured in Luria Bertani (LB) medium at 37°C with vigorous shaking until mid-log phase (~2h) and diluted to 10^7 cfu/mL. Peptide solutions were prepared at different concentrations (from 2 to 500 μM) by successive 2-fold dilutions in water from 1 mM stock solutions. In each row of a 96-well nonbinding surface plate, 90 μL of bacteria were incubated with 10 μL of peptide solutions for 18 h at 37°C. The final peptide concentrations ranged from 0.2 to 100 μM. Cell growth was evaluated by visual inspection and absorbance at 600 nm to determine the lowest concentration of peptide that prevented cell growth. Wells were either opaque, indicating stationary phase growth, or transparent indicating no growth. The lowest concentration showing no visible growth was considered as the MIC. After measurement of the MIC, the bactericidal activity was determined by the addition of resazurin dye (30 μL, 0.01% w/v) to each well [22]. The plates were further incubated at 37°C for 18 h. Wells in which the dye turned pink indicated live bacteria, whereas wells in which the dye remained blue indicated dead bacteria. The minimal bactericidal concentration (MBC) is the lowest concentration with blue coloration (99.9% of bacteria were killed). Three to five independent assays were performed in triplicate. Positive controls correspond to medium plus 0.2% formaldehyde and negative controls to medium without peptide.

E. coli ATCC 8739 = type: cell-based, Escherichia coli
Description: as §1

E. coli K12 = type: cell-based, Escherichia coli; conditions: LB, 10^7 cfu/mL, 18 h at 37°C, peptide 0.2-100 μM, averaged over >=3 independent experiments in triplicate
Description: as §1

E. coli ML 35p = type: cell-based, Escherichia coli; conditions: LB, 10^7 cfu/mL, 18 h at 37°C, peptide 0.2-100 μM, averaged over >=3 independent experiments in triplicate
Description: as §1

[1] = test system: Ps. aeruginosa ATCC 27853; type: cell-based, Pseudomonas aeruginosa; conditions: LB, 10^7 cfu/mL, 18 h at 37°C, peptide 0.2-100 μM, averaged over >=3 independent experiments in triplicate
Description: as §1, with “Wells were either opaque, indicating stationary phase growth, or transparent indicating no growth. The lowest concentration showing no visible growth was considered as the MIC. After measurement of the MIC, the bactericidal activity was determined by the addition of resazurin dye (30 μL, 0.01% w/v) to each well [22]. The plates were further incubated at 37°C for 18 h. Wells in which the dye turned pink indicated live bacteria, whereas wells in which the dye remained blue indicated dead bacteria. The minimal bactericidal concentration (MBC) is the lowest concentration with blue coloration (99.9% of bacteria were killed). Three to five independent assays were performed in triplicate. Positive controls correspond to medium plus 0.2% formaldehyde and negative controls to medium without peptide.” left out

S. epidermidis BM3302 = type: cell-based, Staphylococcus epidermidis
Description: as §1

K. rhizophila ATCC 9341 = type: cell-based, Kocuria rhizophila
Description: as §1

B. subtilis CIP 52.65 = type: cell-based, Bacillus subtilis subsp. subtilis
Description: as §1

S. aureus ATCC 29213 = type: cell-based, Staphylococcus aureus
Description: as §1

S. aureus ATCC 6538 = type: cell-based, Staphylococcus aureus
Description: as §1

S. aureus DAR 5829 = type: cell-based, Staphylococcus aureus; conditions: S. aureus DAR 5829, multi-resistant strain
Description: as §1

S. aureus ST 1065 = type: cell-based, Staphylococcus aureus
Description: as §1

E. faecalis ATCC 29212 = type: cell-based, Enterococcus faecalis
Description: as §1

E. faecium BM 4147 = type: cell-based, Enterococcus faecium; conditions: E. faecium BM 4147, multi-resistant strain
Description: as §1

A549 cells = assay: Cytotoxicity, trypan blue exclusion; type: cell-based; conditions: A549 human lung carcinoma cells, 2-hour incubation at 37°C, 5% CO2, concentrations as high as 100 μM; 3 independent experiments in triplicate
Protocol: A549 cells (ATCC CCL-185), a human lung carcinoma cell line, were cultivated at 37°C, humid atmosphere and 5% CO2, in Petri dishes with DMEM Advanced medium (Gibco) supplemented with 5% of fetal bovine serum (FBS), 2 mM of glutamine, 100 U of penicillin and 50 μg/mL of streptomycin (Gibco). When the cells reached 80% confluence, the medium was discarded and the cells were washed with PBS 1×, before being treated with Trypsin 1× for 2 minutes to detach them form the culture dish. Cells were then resuspended in DMEM medium, seeded in a 48-well culture plate (500 000 cells/well), and either form of DMS-DA6 solubilized in PBS 1× was added and incubated for 2 hours at 37°C, 5% CO2. DMSO 30% was used as a positive control to induce cell death, and DMEM medium as negative control. After incubation, cell viability was assessed by trypan blue exclusion.

S. aureus ST1065 = assay: Bacterial membrane permeabilization (ONPG hydrolysis); type: cell-based, Staphylococcus aureus; conditions: S. aureus ST 1065, 2.5 mM ONPG, absorbance at 420 nm; two independent experiments in triplicate
Protocol: Membrane permeabilization was assessed by monitoring the hydrolysis of ortho-nitrophenyl β-D-galactopyranoside (ONPG) by the β-galactosidase enzyme, using the S. aureus ST1065 strain, specifically designed for membrane permeabilization assays, through detection of cytoplasmic β-galactosidase activity leakage. Bacteria were grown in LB to an absorbance of 0.5 at 600 nm, pelleted by centrifugation, and the pellets were washed twice with PBS. Pellets were then resuspended in 10% LB in PBS to an absorbance of 0.5 at 600 nm. Aliquots (15 μL) of bacterial suspension were mixed with 2.5 mM ONPG and incubated with various concentrations of peptide in a 96-well plate. The hydrolysis of ONPG was monitored by measuring the absorbance at 420 nm of released o-nitrophenol with a Fluostar Galaxy microplate reader (BMG LabTech, France).

[2] = Circular dichroism, helical content with lipid vesicles; type: physicochemical; conditions: CD, 10 mM phosphate buffer pH 7.4, 20 μM peptide, peptide/lipid molar ratio 1/50
Description: Lipid vesicles were formed using bacterial lipids extracted as described above or commercially available synthetic lipids. The lipids, 1-palmitoyl-2-oleoyl-sn-glycero-3-phosphocholine (POPC), 1-palmitoyl-2-oleoyl-sn-glycero-3-phospho-(1'-rac-glycerol) (POPG), 1,2-dimyristoyl-sn-glycero-3-phosphoglycerol (DMPG), 1.2-dioleyl-sn-glycero-3-phosphoglycerol (DOPG), and 1',3'-bis[1,2-dioleoyl-sn-glycero-3-phospho]-sn-glycerol (CL), were obtained from Avanti Polar Lipids, Inc (Alabaster, AL) and used without further purification. Desired mixtures of phospholipids were first dried in glass tubes under nitrogen and then maintained under a reduced pressure for at least 60 min. Lipid films were subsequently hydrated in PBS to yield a lipid concentration of 10 mg.mL^-1 for tryptophan fluorescence experiments, 1 mg.mL^-1 for DSC experiments, and in PB at 1 mM for CD experiments. The resulting dispersions of large multilamellar vesicles (MLVs) were subjected to 3 to 5 freeze-thaw cycles and then extruded 15 times through polycarbonate membranes (100 nm pore size, Whatman, Maidstone, UK) on an Avanti mini-extruder apparatus (Avanti Polar Lipids, Inc., Alabaster, AL) to generate large unilamellar vesicles (LUVs). Lipid vesicles were used either alone, or in combination with S. aureus peptidoglycan (PGN) (Sigma).
The CD spectra of the peptides were recorded as previously described. […]

[3] = LB, 10^7 cfu/mL, 18 h at 37°C, averaged over >=3 independent experiments in triplicate
[4] = resazurin dye added after MIC, further 18 h at 37°C, 99.9% killed, averaged over >=3 experiments in triplicate

CC[C@H](C)[C@H](NC(=O)CNC(=O)[C@H](Cc1c[nH]c2ccccc12)NC(=O)[C@@H](NC(=O)CN)C(C)C)C(=O)N[C@@H](C)C(=O)N[C@@H](CCCCN)C(=O)N[C@H](C(=O)N[C@@H](C)C(=O)NCC(=O)N[C@@H](CCCCN)C(=O)N[C@H](C(=O)N[C@@H](CC(C)C)C(=O)NCC(=O)N[C@@H](CC(N)=O)C(=O)N[C@H](C(=O)N[C@@H](CC(C)C)C(=O)N1CCC[C@H]1C(=O)N[C@@H](Cc1c[nH]cn1)C(=O)N[C@H](C(=O)N[C@@H](Cc1ccccc1)C(=O)N[C@@H](CO)C(=O)N[C@@H](CO)C(=O)N[C@@H](CC(N)=O)C(=O)N[C@@H](CCC(N)=O)C(=O)N[C@@H](CO)C(N)=O)C(C)C)[C@@H](C)CC)C(C)C)[C@@H](C)CC [DMS-DA6-NH2] (H-GVWGIAKIAGKVLGNILPHVFSSNQS-NH2)
MIC (E. coli ATCC 35218): >100 µM | MIC (E. coli ATCC 8739; [3]): 25 µM (≈ 67.3 µg/mL) | MBC (E. coli ATCC 8739; [4]): 50 µM (≈ 135 µg/mL) | MIC (E. coli K12): >100 µM | MIC (E. coli ML 35p): >100 µM | MIC [1]: >100 µM | MIC (S. epidermidis BM3302; [3]): 12.5 µM (≈ 33.7 µg/mL) | MBC (S. epidermidis BM3302; [4]): 12.5 µM (≈ 33.7 µg/mL) | MIC (K. rhizophila ATCC 9341; [3]): 3.12 µM (≈ 8.4 µg/mL) | MBC (K. rhizophila ATCC 9341; [4]): 3.12 µM (≈ 8.4 µg/mL) | MIC (B. subtilis CIP 52.65; [3]): 6.25 µM (≈ 16.8 µg/mL) | MBC (B. subtilis CIP 52.65; [4]): 6.25 µM (≈ 16.8 µg/mL) | MIC (S. aureus ATCC 29213; [3]): 3.12 µM (≈ 8.4 µg/mL) | MBC (S. aureus ATCC 29213; [4]): 6.25 µM (≈ 16.8 µg/mL) | MIC (S. aureus ATCC 6538; [3]): 6.25 µM (≈ 16.8 µg/mL) | MBC (S. aureus ATCC 6538; [4]): 6.25 µM (≈ 16.8 µg/mL) | MIC (S. aureus DAR 5829; [3]): 25 µM (≈ 67.3 µg/mL) | MBC (S. aureus DAR 5829; [4]): 50 µM (≈ 135 µg/mL) | MIC (S. aureus ST 1065; [3]): 12.5 µM (≈ 33.7 µg/mL) | MBC (S. aureus ST 1065; [4]): 12.5 µM (≈ 33.7 µg/mL) | MIC (E. faecalis ATCC 29212; [3]): 50 µM (≈ 135 µg/mL) | MBC (E. faecalis ATCC 29212; [4]): 50 µM (≈ 135 µg/mL) | MIC (E. faecium BM 4147; [3]): 25 µM (≈ 67.3 µg/mL) | MBC (E. faecium BM 4147; [4]): 25 µM (≈ 67.3 µg/mL) | death of A549 cells (trypan blue exclusion) (A549 cells): neither DMS-DA6-OH (net charge +2) nor DMS-DA6-NH2 (net charge +3) resulted in the death | peptide concentration at which the maximal absorption intensity (ONPG hydrolysis) after 240 minutes was reached (S. aureus ST1065): 12.5 µM | α-helix conformation ([2]; POPG LUVs): about 80% | α-helix conformation ([2]; pure zwitterionic POPC LUVs): 40% | intact peptide remaining: > 90%
